Laboratory results from patent US9232796B2, “Herbicidal compositions comprising 4-amino-3-chloro-5-fluoro-6-(4-chloro-2-fluoro-3-methoxyphenyl) pyridine-2-carboxylic acid or a derivative thereof and acetyl-CoA carboxylase (ACCase) inhibitors” (DOW AGROSCIENCES LLC, priority 2012, dated 2016).

Tests used:
Assay in all cases: Example IV postemergence foliar-applied, greenhouse, cereal crops weeds
ALOMY = format: in vivo, Alopecurus myosuroides Huds.
Protocol: (§1) Seeds of the desired test plant species were planted in Sun Gro MetroMix® 306 planting mixture, which typically has a pH of 6.0 to 6.8 and an organic matter content of about 30 percent, in plastic pots with a surface area of 103.2 square centimeters (cm^2). When required to ensure good germination and healthy plants, a fungicide treatment and/or other chemical or physical treatment was applied. The plants were grown for 7-36 days in a greenhouse with an approximate 14 hour photoperiod which was maintained at about 18° C. during the day and about 17° C. during the night. Nutrients and water were added on a regular basis and supplemental lighting was provided with overhead metal halide 1000-Watt lamps as necessary. The plants were employed for testing when they reached the second or third true leaf stage.
(§2) Treatments consisted of the benzyl ester of 4-amino-3-chloro-5-fluoro-6-(4-chloro-2-fluoro-3-methoxy-phenyl)pyridine-2-carboxylic acid (Compound A), formulated as an SC, a second cereal herbicide alone and then both in combination.
(§3) Other herbicidal components were applied on an active ingredient basis and included acetyl-CoA carboxylase (ACCase)-inhibiting herbicides clodinafop-propargyl, fenoxaprop-P-ethyl, pinoxaden and tralkoxydim.
(§4) Measured aliquots of benzyl ester of 4-amino-3-chloro-5-fluoro-6-(4-chloro-2-fluoro-3-methoxy-phenyl)pyridine-2-carboxylic acid (Compound A) were placed in 25 milliliter (mL) glass vials and diluted in a volume of 1.25% (v/v) Agri-Dex® crop oil concentrate to obtain stock solutions. Compound requirements are based upon a 12 mL application volume at a rate of 187 liters per hectare (L/ha). Spray solutions of the second cereal herbicide and experimental compound mixtures were prepared by adding the stock solutions to the appropriate amount of dilution solution to form 12 mL spray solution with active ingredients in two- and three-way combinations. Formulated compounds were applied to the plant material with an overhead Mandel track sprayer equipped with an 8002E nozzle calibrated to deliver 187 L/ha over an application area of 0.503 square meters (m^2) at a spray height of 18 inches (46 cm) above average plant canopy. Control plants were sprayed in the same manner with the solvent blank.
(§5) The treated plants and control plants were placed in a greenhouse as described above and watered by sub-irrigation to prevent wash-off of the test compounds. After 20-22 days, the condition of the test plants as compared with that of the control plants was determined visually and scored on a scale of 0 to 100 percent where 0 corresponds to no injury and 100 corresponds to complete kill. […]

LOLMU = format: in vivo, Lolium multiflorum Lam.
Protocol: as §1, §2, §3, §4
(§6) The treated plants and control plants were placed in a greenhouse as described above and watered by sub-irrigation to prevent wash-off of the test compounds. After 20-22 days, the condition of the test plants as compared with that of the control plants was determined visually and scored on a scale of 0 to 100 percent where 0 corresponds to no injury and 100 corresponds to complete kill.
(§7) Colby's equation was used to determine the herbicidal effects expected from the mixtures (Colby, S. R. 1967. Calculation of the synergistic and antagonistic response of herbicide combinations. Weeds 15:20-22.).
(§8) The following equation was used to calculate the expected activity of mixtures containing two active ingredients, A and B: Expected=A+B−(A×B/100)

KCHSC = format: in vivo, Kochia scoparia (L.) Schrad.
Protocol: as §1, with “When required to ensure good germination and healthy plants, a fungicide treatment and/or other chemical or physical treatment was applied.” left out
as §2, §3
as §4, with “Spray solutions of the second cereal herbicide and experimental compound mixtures were prepared by adding the stock solutions to the appropriate amount of dilution solution to form 12 mL spray solution with active ingredients in two- and three-way combinations.” left out
as §6, §7, §8

AVEFA = format: in vivo, Avena fatua L.
Protocol: as §1, §2, §3, §4, §5

[1] = Compound A Benzyl Ester 5 gai/ha
[2] = Compound A Benzyl Ester 10 gai/ha

SMILES: COc1c(Cl)ccc(-c2nc(C(=O)OCc3ccccc3)c(Cl)c(N)c2F)c1F [Compound A Benzyl Ester, benzyl ester of 4-amino-3-chloro-5-fluoro-6-(4-chloro-2-fluoro-3-methoxy-phenyl)pyridine-2-carboxylic acid]
- Visual Weed Control (%) - 21 DAA ALOMY Obs (ALOMY; [1]): 0%
- Visual Weed Control (%) - 21 DAA ALOMY Obs (ALOMY; [2]): 0%
- Visual Weed Control (%) - 21 DAA LOLMU Obs (LOLMU; [1]): 0%
- Visual Weed Control (%) - 21 DAA LOLMU Obs (LOLMU; [2]): 0%
- Visual Weed Control (%) - 21 DAA KCHSC Obs (KCHSC; [1]): 20%
- Visual Weed Control (%) - 21 DAA KCHSC Obs (KCHSC; [2]): 30%
- Visual Weed Control (%) - 21 DAA AVEFA Obs (AVEFA; [1]): 0%
- Visual Weed Control (%) - 21 DAA AVEFA Obs (AVEFA; [2]): 0%
